Source: ChEMBL document CHEMBL1208777, “Synthesis of novel oxime-containing pyrazole derivatives and discovery of regulators for apoptosis and autophagy in A549 lung cancer cells” (Bioorg Med Chem Lett, 2010)
Activity calls are given as the source filed them. The rule behind the calls is not given here.

How the values were obtained:
A549 [1] = assay: Cytotoxicity against human A549 cells after 48 hrs by SRB assay; assay type: functional, cell-based; conditions: for IC50: A549, 48 h
A549 [2] = assay: Cytotoxicity against human A549 cells at 10 to 40 uM by SRB assay; assay type: functional, cell-based; conditions: TDE = time-dependent effect
A549 [3] = assay: Induction of necrosis in human A549 cells assessed as LDH release at 40 uM after 48 hrs; assay type: functional, cell-based
A549 [4] = assay: Anticancer activity against human A549 cells assessed as occurrence of autophagy at 10 to 40 uM after 48 hrs by acridine orange staining-based fluorescence microscopy; assay type: functional, cell-based
A549 [5] = assay: Anticancer activity against human A549 cells assessed as increase in autophagosome level at 40 uM after 24 hrs by Western blot analysis; assay type: functional, cell-based
A549 [6] = assay: Induction of apoptosis in human A549 cells assessed as occurrence of nuclear granulation at 10 to 40 uM after 48 hrs by Hoechst 33258 staining-based fluorescence microscopy; assay type: functional, cell-based
A549 [7] = assay: Anticancer activity against human A549 cells assessed as increase in autophagosome level at 20 uM after 24 hrs by Western blot analysis; assay type: functional, cell-based
A549 [8] = assay: Cytotoxicity against human A549 cells at 10 uM after 48 hrs by SRB assay; assay type: functional; conditions: A549, 48 h
A549 [9] = assay: Cytotoxicity against human A549 cells at 20 uM after 48 hrs by SRB assay; assay type: functional; conditions: A549, 48 h
A549 [10] = assay: Cytotoxicity against human A549 cells at 40 uM after 48 hrs by SRB assay; assay type: functional; conditions: A549, 48 h

SMILES: CCOC(=O)c1cc(-c2ccc(OC)cc2)nn1C/C(=N/O)c1ccc(OC)cc1
- Activity (A549 [1]): Dose-dependent effect
- IC50 (A549 [1]): 36.5 µM
- Activity (A549 [2]): tde
- Activity (A549 [3]): inactive
- Activity (A549 [4]): Active
- Activity (A549 [5]): Active

SMILES: CCOC(=O)c1cc(-c2ccccc2)nn1C/C(=N/O)c1ccc(Cl)cc1
- Activity (A549 [1]): Dose-dependent effect
- IC50 (A549 [1]): 26.3 µM
- Activity (A549 [2]): tde
- Activity (A549 [6]): Active
- Activity (A549 [3]): inactive
- Activity (A549 [4]): Active
- Activity (A549 [7]): Active

SMILES: CCOC(=O)c1cc(-c2ccc(OC)cc2)nn1C/C(=N/O)c1ccc(Cl)cc1
- Activity (A549 [1]): Dose-dependent effect
- IC50 (A549 [1]): 16.3 µM
- Activity (A549 [2]): tde
- Activity (A549 [6]): Active
- Activity (A549 [3]): inactive
- Activity (A549 [4]): Active
- Activity (A549 [5]): Active

SMILES: CCOC(=O)c1cc(-c2ccccc2)nn1C/C(=N/O)c1ccc(OC)cc1
- Activity (A549 [1]): Dose-dependent effect
- IC50 (A549 [1]): 29.1 µM
- Activity (A549 [2]): tde
- Activity (A549 [3]): inactive
- Activity (A549 [5]): inactive

SMILES: CCOC(=O)c1cc(-c2ccccc2)nn1C/C(=N/O)c1ccccc1
- Activity (A549 [1]): Dose-dependent effect
- IC50 (A549 [1]): 29.8 µM
- Activity (A549 [2]): tde
- Activity (A549 [6]): Active
- Activity (A549 [3]): inactive

SMILES: CCOC(=O)c1cc(-c2ccc(Cl)cc2)nn1C/C(=N/O)c1ccccc1
- Activity (A549 [1]): Dose-dependent effect
- IC50 (A549 [1]): 31.4 µM
- Activity (A549 [2]): tde
- Activity (A549 [6]): Active
- Activity (A549 [3]): inactive
- Activity (A549 [4]): Active
- Activity (A549 [5]): Active

SMILES: CCOC(=O)c1cc(-c2ccc(Cl)cc2)nn1C/C(=N/O)c1ccc(Cl)cc1
- inhibition at 10 µM (A549 [8]): 58.6%
- inhibition at 20 µM (A549 [9]): 51.9%
- inhibition at 40 µM (A549 [10]): 10.3%
- Activity (A549 [1]): Dose-dependent effect
- IC50 (A549 [1]): 14.6 µM
- Activity (A549 [2]): tde
- Activity (A549 [6]): Active
- Activity (A549 [3]): inactive
- Activity (A549 [4]): Active
- Activity (A549 [7]): Active

SMILES: CCOC(=O)c1cc(-c2ccc(OC)cc2)nn1C/C(=N/O)c1ccccc1
- Activity (A549 [1]): Dose-dependent effect
- IC50 (A549 [1]): 42.7 µM
- Activity (A549 [2]): tde
- Activity (A549 [6]): Active
- Activity (A549 [3]): inactive

SMILES: CCOC(=O)c1cc(-c2ccc(Cl)cc2)nn1C/C(=N/O)c1ccc(OC)cc1
- Activity (A549 [1]): Dose-dependent effect
- IC50 (A549 [1]): 17.8 µM
- Activity (A549 [2]): tde
- Activity (A549 [3]): inactive
- Activity (A549 [4]): Active
- Activity (A549 [5]): Active
